{"source": "patent US9011863B2", "about": "“Combinations of kinase inhibitors for the treatment of cancer” (Exelixis, Inc., priority 2010, dated 2015)", "key": {"[1]": {"system": "FoxO1 and FoxO3a", "assay": "cytoplasmic and nuclear fractionation, FoxO immunoblot", "format": "cell-based, human", "details": "BT474 and MDA453; 6 μM compound A or 2 μM 5J8; 4 hours", "experimental": "Nuclear (Nu) and cytoplasmic (Cy) extracts were isolated and subjected to immunoblotting with FoxO1 and FoxO3a antibodies. Loading controls for Nu: HDAC3; for Cy: RhoA (BT474) and MEK1/2 (MDA453).\nCytoplasmic and nuclear extracts were prepared using the Nuclear Extract Kit from Active Motif. Briefly, cells were plated in 100-mm dishes, treated with inhibitors at the indicated concentrations for 3-4 hours, washed with ice-cold PBS/phosphatase inhibitors, lysed in hypotonic buffer and centrifuged for 30 seconds at 14,000 rpm at 4° C. to collect the supernatant (cytoplasmic extract). The pellet (nuclear fraction) was resuspended in complete lysis buffer and centrifuged for 10 minutes at 14,000 rpm at 4° C. to collect the supernatant (nuclear fraction)."}, "[2]": {"system": "human breast cancer cell lines", "assay": "cell proliferation (cell counting) and crystal violet assays", "format": "cell-based", "description": "Cells were seeded in 12-well plates at a density of 2.5-3.5×10^4 cells/well in medium containing 2.5% FBS±inhibitors. Media and inhibitors were replaced every 3 days. On the days indicated in figures, cells were trypsinized and counted in a Beckman Coulter counter. For crystal violet assay, 5×10^4 cells/well were seeded in 6-well plates and grown in absence or presence of compound A for 6 days, fixed in methanol, stained with crystal violet, and photographed using an Olympus DP10 camera.\nA panel of breast cancer cell lines with dysregulated PI3K activity was treated with increasing doses of compound A under two- and three-dimensional (2D and 3D) growth conditions. All experiments were conducted in 2.5% FBS-containing media, unless otherwise stated. […] This was further confirmed by immunoblot analysis of biomarkers of cell death and G1-S cell cycle transition in lysates from cells treated for 24 hours with compound A as shown in FIG. 10B."}, "[3]": {"system": "p85-associated pTyr proteins in BT474 cells", "assay": "p85 immunoprecipitation with pTyr / HER3 immunoblot", "format": "cell-based, human", "details": "BT474, 0-20 μM, 24 hours", "description": "FIG. 13C depicts a photomicrrograph of immunoblots of cell lysates from BT474 cells which were treated with 0-20 μM compound A for 24 hours. Cells were then lysed, and 0.5 mg of lysate subjected to immunoprecipitation (IP) with a p85 antibody followed by p85 and pTyr.\nFIG. 13D depicts a photomicrrograph of immunoblots of cell lysates from BT474 cells which were treated with 0-20 μM compound A for 24 hours. Cells were then lysed, and 0.5 mg of lysate subjected to immunoprecipitation (IP) with a p85 antibody followed by p85 and HER3.\nImmunoprecipitation, immunoblotting, and RTK assays were performed according to published methods. […] Immunoreactive signals were detected by enhanced chemilluminsecence (Pierce, Rockford, Ill., USA). […]\nIn HER2 overexpressing cells, although not bound by any particular theory, it is believed that the main mechanism of activation of PI3K is the coupling of pHER3 to an SH2 domain in the N-terminus of p85, the regulatory subunit of PI3K. […] Consistent with previous studies, the p85-associated approximately 200-kDa band was also detected with HER3 and pHER3^Y1197 antibodies as shown in FIGS. 13D and 13F. […]"}, "[4]": {"system": "phospho-Akt, HER3, RTKs and intracellular kinases in HCC1937 cells", "assay": "phospho-RTK / phospho-kinase arrays and Western blotting in HCC1937 cells", "format": "cell-based, human", "description": "FIG. 1A. siRNA screen to identify kinases that potentially compensate for PI3K inhibition. HCC1937 breast cancer cells were treated with the indicated amounts of compound A for 6, 24, or 72 hours in medium containing 2.5% FBS. Cell lysates analyzed by immunoblotting with the indicated antibodies.\n(§1) FIGS. 3A and 3B. PI3K inhibition induces phosphorylation of RTKs and intracellular kinases. HCC1937 cells were treated with 10 μM compound A in medium containing 2.5% FBS for 0, 8, 24, or 48 hours. Media and drugs were replenished every 24 hours. Lysates were used to probe phospho-RTK arrays (FIG. 3A) or phospho-kinase arrays (FIG. 3B) (R&D systems). Corner spots are positive controls. Candidate kinases from the siRNA screen that are also phosphorylated upon treatment with compound A are shown in red.\nas §1, with “4A” for “3A”, “4B.” for “3B. PI3K inhibition induces phosphorylation of RTKs and intracellular kinases.”, “(A)” for “(FIG. 3A)”, “(B)” for “(FIG. 3B)”\nThe purpose of the present study is to identify kinases and kinase-regulated signaling pathways that compensate for PI3K inhibition in human breast cancer cells. To this end, siRNA screen is employed targeting 779 human kinases in order to determine if downregulation of specific kinases increases the sensitivity of HCC1937 human breast cancer cells to the PI3K inhibitor compound A, which a compound of formula I and of Table 1. […] Following reverse transfection with the siRNA library, cells are treated with either DMSO or 10 μM compound A for 72 hours in a medium containing 2.5% fetal bovine serum (FIGS. 1A and 2) and the alamar blue assay is used to measure cell viability FIG. 1B. […] HCC1937 cells were treated with 10 μM compound A in medium containing 2.5% FBS for 0, 2, 8, or 24 hours. RNA was isolated with Trizol and purified using the RNeasy column (Qiagen). Gene expression from three independent experiments was measured using the Gene titan 3′ microarray. *, p<0.05; **, p<0.01 versus 0 hours, as shown in FIG. 5."}}, "note": "pIC50: −log10 of the molar value."}
{"smiles": "COc1ccc(Cl)c(Nc2nc3ccccc3nc2NS(=O)(=O)c2cccc(NC(=O)C(C)(C)N)c2)c1", "note": "[Compound A]", "values": [{"measurement": "subcellular distribution of FoxO1 and FoxO3a", "setting": "[1]", "result": "accumulation of both FoxO factors in the nucleus of BT474 and MDA453 cells"}, {"measurement": "cell number below baseline", "setting": "[2]; 20 μM", "result": "induced cell death"}, {"measurement": "pIC50", "setting": "[2]; Homo sapiens, panel of breast cancer cell lines, 2.5% FBS, read-out: IC50 of cell growth (2D)", "result": "~5.22"}, {"measurement": "2D growth", "setting": "[2]; panel of breast cancer cell lines, increasing doses", "result": "inhibited the 2D growth of all cell lines in a dose-dependent manner"}, {"measurement": "p85-associated pTyr band", "setting": "[3]", "result": "dose-dependent increase of approximately 200-kDa main pTyr band"}, {"measurement": "phospho-Akt and HER3 by Western blotting", "setting": "[4]; HCC1937", "result": "decreases phospho-Akt at S473 and T308 and increases phospho- and total HER3"}, {"measurement": "phosphorylation of MAP kinases", "setting": "[4]; HCC1937", "result": "increases phosphorylation of the MAP kinases ERK, JNK, and p38 MAPK"}, {"measurement": "phospho-Akt", "setting": "[4]; HCC1937, 10 μM, 48 hours", "result": "phosphorylation at S473 is partially restored"}, {"measurement": "phospho-Akt", "setting": "[4]; HCC1937, 10 μM, eight and 24 hour treatments", "result": "suppressed phospho-Akt at both S473 and T308"}, {"measurement": "expression and/or phosphorylation of RTKs and intracellular kinases", "setting": "[4]; HCC1937, 10 μM, within 8-48 hours", "result": "increased expression and/or phosphorylation of many RTKs and intracellular kinases"}]}
